Reference: publication PMC11488110 (Theranostics, 2024)
“Also recorded” adds a separate entry of the source.

Assays:
[1] = system: Salmonella typhimurium TA98; assay: Ames MPF mutagenicity assay, TA98; format: cell-based
Protocol: An Ames microplate format (MPF) 98/100 mutagenesis assay kit (Xenometrix) was used to test mutagenic activity. The TA98 / TA100 Salmonella strain was inoculated into the bacterial culture medium and cultured overnight. The Salmonella test strain was then exposed to six concentrations of the test compound (plus positive and negative controls). Samples were prepared in 96-well plates in sterile DMSO. The cultured bacteria, test compound, and S9 mixture were incubated for 90 min at 37 °C in a shaking incubator. The mixture was then treated with an indicator medium and dispensed into 384-well plates. The plates were incubated at 37 °C for 48 h. The number of wells containing revertant colonies was counted for each dose.
Ta b l e S4 . Tw o -strain Ames mutagenic assess ment of 5a.
Straina Activity in the absence (-) of S9b Activity in the presence (+) of S9b TA 9 8 Negative (-) Negative (-)
TA 1 0 0 Negative (-) Negative (-) aSalmonella typhimurium strains TA98 (hi s D3052 mutation) and TA100 (hisG46 mutation) were used to detect frameshift mutations and base- pair substitution mutations, respectively. bAroclor 1254- induced rat liver S9 fraction for exogenous metabolic activation.

APP/PS1 mice = assay: APP/PS1 transgenic mouse model of AD; format: in vivo; conditions: 30 mg/kg/day p.o. 10 days
Protocol: All mice and rats were housed in a temperature- and humidity-controlled environment with a 12 h light/dark cycle and ad libitum access to food and water. All procedures were performed in accordance with the National Institutes of Health Guide for the Care and Use of Laboratory Animals and approved by the Institutional Animal Care and Use Committee of Korea Institute of Science and Technology (KIST-IACUC-2022-020-1). For the pharmacokinetics study, Sprague-Dawley rats were purchased from Koatech (South Korea) and maintained in a specific pathogen-free facility (Laboratory Animal Center, Daegu-Gyeongbuk Medical Innovation Foundation). For the LPS-induced neuroinflammation model or scopolamine-induced AD model, male C57BL/6N mice were obtained from DBL (South Korea). APP/PS1 (APPswe/PSEN1dE9) transgenic mice from the Jackson Laboratory (USA; stock number 004462) were maintained as hemizygotes on the C57BL/6; C3H genetic background at the Research Animal Resources Center of KIST. 10-week-old C57BL/6N and 12-month-old APP/PS1 were used in behavioral experiments with sex- and age-matched controls.
For the neuroinflammation model, C57BL/6N mice were intraperitoneally injected daily with 0.3 mg/kg LPS (Sigma-Aldrich, L2880) dissolved in saline (0.9% sodium chloride), for 6 consecutive days. In a non-genetic AD model, we induced acute memory deficits in C57BL/6N mice by intraperitoneal injection with 1 mg/kg of scopolamine hydrobromide (Sigma-Aldrich, S0929) dissolved in saline, 30 min before the behavioral tests. At the end of the experimental period, mice were deeply anesthetized with 2% avertin (500 mg/kg, i.p.) and transcardially perfused with saline. Brains were collected from each mouse, and the hippocampus and cortex were isolated and stored at -80 °C for biochemical analysis. Brain hemispheres were postfixed in 4% paraformaldehyde overnight at 4 °C, then placed in 30% sucrose solution for 48 h at 4 °C for cryoprotection and used for histological analysis.
The Y-maze test was used to evaluate the spatial learning and memory performance of mice. The Y-maze apparatus consisted of three identical arms disposed at a 120° angle from each other (41 cm long and 7 cm wide with 15 cm high walls). Mice were placed at the end of one arm and allowed to move freely in the maze for 10 min. The arm entries were manually recorded. Spontaneous alternation was defined as consecutive entries into three different arms and the percentage of alternation was calculated based on the following equation: alternation (%) = number of alternations/(total arm entries - 2) × 100.
Fixed mouse brains were embedded in an optimal cutting temperature compound (Leica, 3801480) and serially sectioned at 30 μm in a cryostat (Thermo Fisher Scientific, HM525 NX). Coronal hippocampal sections were stored in a storage solution (30% glycerol, 30% ethylene glycol, and 30% 0.2 M sodium phosphate buffer, pH 7.2) at 4 °C until use. After washing three times with PBS, the sections were blocked for 1 h with blocking buffer (0.3% Triton X-100 and 4% normal donkey serum in 0.1 M PBS) at room temperature, followed by incubation with primary antibodies in blocking buffer overnight at 4 °C. After washing with PBS, the sections were incubated with corresponding fluorescent secondary antibodies (Jackson ImmunoResearch, Alexa Fluor) for 1 h at room temperature and washed three times with PBS. Nuclei were counterstained with 4′,6-diamidino-2-phenylindole (DAPI; Invitrogen) during the second washing step. Sections were mounted with fluorescent mounting medium (Dako). Fluorescent images were acquired with the ImageXpress Pico (Molecular Devices; 20× magnification) or LSM 800 confocal microscope (Carl Zeiss; 40× magnification). Primary antibodies used are described in Table S6.
Z-stack projected images (20 μm thickness with a step size of 2 μm or 4 μm) were analyzed using the ImageJ software (NIH). To quantify glial reactivity, the mean fluorescence intensity of GFAP or IBA1 was measured. […]

Cc1cc(SCc2[se]c(-c3ccc(C(F)(F)F)cc3)nc2C)ccc1OCC(=O)O [Compound 5a, {2-Methyl-4-[4-methyl-2-(4-trifluoromethyl-phenyl)-selenazol-5-yl-methylsulfanyl]-phenoxy}-acetic acid]
Ames mutagenic activity in the presence (+) of S9 ([1]; TA98, with rat liver S9): Negative (-); also recorded: lacks mutagenicity | Ames mutagenic activity in the absence (-) of S9 ([1]; TA98, without S9): Negative (-); also recorded: lacks mutagenicity | Astrocytic hypertrophy (Sholl analysis) (APP/PS1 mice): significantly suppressed | BACE1 levels in cortical homogenates (APP/PS1 mice): significantly diminished | GFAP and IBA1 immunoreactivity, dentate gyrus (APP/PS1 mice): significantly inhibited | Gfap mRNA in hippocampus homogenates (APP/PS1 mice): reduced levels | Number and area of thioflavin-S Aβ plaques, cortex and hippocampus (APP/PS1 mice): significant reduction in the number and area of Aβ plaques | Number of microglia per plaque (APP/PS1 mice): significant increase | Overall tau hyperphosphorylation in the brain (APP/PS1 mice): inhibiting overall tau hyperphosphorylation | Phagolysosome area within plaque-associated microglia and internalized Aβ area (APP/PS1 mice): increased the phagolysosome area | Plaque-associated BACE1 accumulation, hippocampus (APP/PS1 mice): significantly reduced | Y-maze spontaneous alternation (APP/PS1 mice): prevented the decrease in alternation percentage | Y-maze total number of arm entries (APP/PS1 mice): without inducing any changes | AT8-positive phosphorylated tau around Aβ plaques (APP/PS1 mice; not significant): tend to decrease
